Data taken from patent US20170159101A1, “DRUG-RESISTANT P97 ATPASE MUTATIONS” (Cleave Biosciences, Inc., priority 2014, published 2017).

Tests used:
[1] = system: DLD-1 resistant cell line clone #82 (p97 A569A/T); experiment: GI50 fold-change, resistant clone #82 vs parental; assay type: cell-based, human; conditions: Clone #82, DLD-1, resistance generated with compound 4, G1705G/A / A569A/T; 72 hrs
Experimental: (§1) Dose titration of test compounds were conducted in Hct116, DLD-1, or LoVo cell lines. In brief, cells were plated in 384-well plates and a selected candidate drug compound was added in a 10-point 2-fold serial dilution.

[2] = system: Hct116 resistant cell line clone #47 (p97 E498D); experiment: GI50 fold-change, resistant clone #47 vs parental; assay type: cell-based, human; conditions: Clone #47, Hct116, resistance generated with compound 4, G1494T / E498D; 72 hrs
Experimental: as §1

[3] = system: Hct116 resistant cell line clone #11 (p97 E470D); conditions: Clone #11, Hct116, resistance generated with compound 3, G1410T / E470D; 72 hrs
[4] = system: DLD-1 resistant cell line clone #64 (p97 N660N/S); experiment: GI50 fold-change, resistant clone #64 vs parental; assay type: cell-based, human; conditions: Clone #64, DLD-1, resistance generated with compound 4, A1979G/A / N660N/S; 72 hrs
Experimental: as §1

[5] = system: Hct116 resistant cell line clone #207 (p97 V485D); experiment: GI50 fold-change, resistant clone #207 vs parental; assay type: cell-based, human; conditions: Clone #207, Hct116, resistance generated with compound 4, T1454A / V485D; 72 hrs
Experimental: as §1

[6] = system: Hct116 resistant cell line clone #2 (p97 V474A); experiment: GI50 fold-change, resistant clone #2 vs parental; assay type: cell-based, human; conditions: Clone #2, Hct116, resistance generated with compound 2, T1421C / V474A; 72 hrs
Experimental: as §1

[7] = system: LoVo resistant cell line clone #221 (p97 V474V/A); experiment: GI50 fold-change, resistant clone #221 vs parental; assay type: cell-based, human; conditions: Clone #221, LoVo, resistance generated with compound 4, T1421C/T / V474V/A; 72 hrs
Experimental: (§2) Dose titration of test compounds were conducted in Hct116, DLD-1, or LoVo cell lines. In brief, cells were plated in 384-well plates and a selected candidate drug compound was added in a 10-point 2-fold serial dilution. […] Hct116 cells were plated at 50,000 cells per 15 cm dish and treated with GI50-GI90 doses of test compound for 2-4 weeks until individual colonies of cells were visible on the plate.

[8] = system: Hct116 resistant cell line clone #6 (p97 A528T); experiment: GI50 fold-change, resistant clone #6 vs parental; assay type: cell-based, human; conditions: Clone #6, Hct116, resistance generated with compound 2, G1582 / A528T; 72 hrs
Experimental: as §1

[9] = system: Hct116 resistant cell line clone #90 (p97 Q473P); experiment: GI50 fold-change, resistant clone #90 vs parental; assay type: cell-based, human; conditions: Clone #90, Hct116, resistance generated with compound 4, A1418C / Q473P; 72 hrs
Experimental: as §1

[10] = system: DLD-1 resistant cell line clone #83 (p97 N660N/D); experiment: GI50 fold-change, resistant clone #83 vs parental; assay type: cell-based, human; conditions: Clone #83, DLD-1, resistance generated with compound 4, A1978G/A / N660N/D; 72 hrs
Experimental: as §1

[11] = system: Hct116 resistant cell line clone #31 (p97 C535Y); experiment: GI50 fold-change, resistant clone #31 vs parental; assay type: cell-based, human; conditions: Clone #31, Hct116, resistance generated with compound 4, G1604A / C535Y; 72 hrs
Experimental: as §1

[12] = system: Hct116 resistant cell line clone #137 (p97 T475I); experiment: GI50 fold-change, resistant clone #137 vs parental; assay type: cell-based, human; conditions: Clone #137, Hct116, resistance generated with compound 4, C1424T / T475I; 72 hrs
Experimental: as §1

[13] = system: DLD-1 resistant cell line clone #61 (p97 I620I/L); experiment: GI50 fold-change, resistant clone #61 vs parental; assay type: cell-based, human; conditions: Clone #61, DLD-1, resistance generated with compound 4, T1859T/C / I620I/L; 72 hrs
Experimental: as §1

[14] = system: Hct116 resistant cell line clone #27 (p97 T688A); experiment: GI50 fold-change, resistant clone #27 vs parental; assay type: cell-based, human; conditions: Clone #27, Hct116, resistance generated with compound 4, A2062G / T688A; 72 hrs
Experimental: as §1

[15] = system: Hct116 resistant cell line clone #8 (p97 N660D); experiment: GI50 fold-change, resistant clone #8 vs parental; assay type: cell-based, human; conditions: Clone #8, Hct116, resistance generated with compound 3, A1978G / N660D; 72 hrs
Experimental: as §1

[16] = system: Hct116 resistant cell line clone #117 (p97 L482I); experiment: GI50 fold-change, resistant clone #117 vs parental; assay type: cell-based, human; conditions: Clone #117, Hct116, resistance generated with compound 4, C1444A / L482I; 72 hrs
Experimental: as §1

[17] = system: Hct116 resistant cell line clone #139 (p97 P472S); experiment: GI50 fold-change, resistant clone #139 vs parental; assay type: cell-based, human; conditions: Clone #139, Hct116, resistance generated with compound 4, C1414T / P472S; 72 hrs
Experimental: as §1

[18] = system: Hct116 resistant cell line clone #29 (p97 N660K); experiment: GI50 fold-change, resistant clone #29 vs parental; assay type: cell-based, human; conditions: Clone #29, Hct116, resistance generated with compound 4, C1980A / N660K; 72 hrs
Experimental: as §1

[19] = system: Hct116 resistant cell line clone #25 (p97 P500T); experiment: GI50 fold-change, resistant clone #25 vs parental; assay type: cell-based, human; conditions: Clone #25, Hct116, resistance generated with compound 4, C1498A / P500T; 72 hrs
Experimental: as §1

[20] = system: Hct116 resistant cell line clone #42 (p97 P472A); experiment: GI50 fold-change, resistant clone #42 vs parental; assay type: cell-based, human; conditions: Clone #42, Hct116, resistance generated with compound 4, C1414G / P472A; 72 hrs
Experimental: as §1

[21] = system: Hct116 resistant cell line clone #30 (p97 F516L); experiment: GI50 fold-change, resistant clone #30 vs parental; assay type: cell-based, human; conditions: Clone #30, Hct116, resistance generated with compound 4, T1546C / F516L; 72 hrs
Experimental: as §1

[22] = system: Hct116 resistant cell line clone #108 (p97 P646T); experiment: GI50 fold-change, resistant clone #108 vs parental; assay type: cell-based, human; conditions: Clone #108, Hct116, resistance generated with compound 4, C1936A / P646T; 72 hrs
Experimental: as §2

[23] = system: Hct116 resistant cell line clone #22 (p97 N660D); experiment: GI50 fold-change, resistant clone #22 vs parental; assay type: cell-based, human; conditions: Clone #22, Hct116, resistance generated with compound 4, A1978G / N660D; 72 hrs
Experimental: as §1

| SMILES | Fold Change in GI50 Compared to Parental Cell Line [1] [fold] | Fold Change in GI50 Compared to Parental Cell Line [2] [fold] | Fold Change in GI50 Compared to Parental Cell Line [3] [fold] | Fold Change in GI50 Compared to Parental Cell Line [4] [fold] | Fold Change in GI50 Compared to Parental Cell Line [5] [fold] | Fold Change in GI50 Compared to Parental Cell Line [6] [fold] | Fold Change in GI50 Compared to Parental Cell Line [7] [fold] | Fold Change in GI50 Compared to Parental Cell Line [8] [fold] | Fold Change in GI50 Compared to Parental Cell Line [9] [fold] | Fold Change in GI50 Compared to Parental Cell Line [10] [fold] | Fold Change in GI50 Compared to Parental Cell Line [11] [fold] | Fold Change in GI50 Compared to Parental Cell Line [12] [fold] | Fold Change in GI50 Compared to Parental Cell Line [13] [fold] | Fold Change in GI50 Compared to Parental Cell Line [14] [fold] | Fold Change in GI50 Compared to Parental Cell Line [15] [fold] | Fold Change in GI50 Compared to Parental Cell Line [16] [fold] | Fold Change in GI50 Compared to Parental Cell Line [17] [fold] | Fold Change in GI50 Compared to Parental Cell Line [18] [fold] | Fold Change in GI50 Compared to Parental Cell Line [19] [fold] | Fold Change in GI50 Compared to Parental Cell Line [20] [fold] | also measured |
| --- | --- | --- | --- | --- | --- | --- | --- | --- | --- | --- | --- | --- | --- | --- | --- | --- | --- | --- | --- | --- | --- |
| CC(C)C[C@H](NC(=O)[C@H](Cc1ccccc1)NC(=O)c1cnccn1)B(O)O [Compound 1, [(1R)-3-methyl-1-[(2S)-3-phenyl-2-(pyrazin-2-ylformamido)propanamido]butyl]boronic acid, reference compound] | 1.5 | 0.8 | 1.0 | 0.7 | 1.0 | 1.0 | 0.9 | 1.1 | 1.2 | 1.2 | 0.9 | 0.8 | 0.8 | 1.1 | 0.8 | 0.8 | 1.0 | 0.9 | 1.3 | 1.0 | Fold Change in GI50 Compared to Parental Cell Line [21]: 0.9 fold; Fold Change in GI50 Compared to Parental Cell Line [22]: 0.9 fold; Fold Change in GI50 Compared to Parental Cell Line [23]: 1.0 fold |
| Cc1cc2c(C(N)=O)cccc2n1-c1nc2c(c(NCc3ccccc3)n1)COCC2 [Compound 4, 1-[4-(benzylamino)-5H,7H,8H-pyrano[4,3-d]pyrimidin-2-yl]-2-methyl-1H-indole-4-carboxamide] | 6.6 | 2.4 | 5.4 | 1.2 | 17.0 | 8.7 | 2.2 | 11.8 | 3.0 | 2.7 | 4.6 | 4.4 | 1.3 | 50.3 | 1.8 | 3.2 | 4.8 | 16.5 | 1.6 | 6.1 | Fold Change in GI50 Compared to Parental Cell Line [21]: 7.1 fold; Fold Change in GI50 Compared to Parental Cell Line [22]: 2.0 fold; Fold Change in GI50 Compared to Parental Cell Line [23]: 3.1 fold |
